Experimental data reported in ChEMBL document CHEMBL1201862, “PubChem BioAssay data set” (2004).
Activity calls are given as the source filed them.

Tests used:
[1] = biological target: T1, Calpain-2 catalytic subunit (Sus scrofa, UniProt P43367); assay: m-calpain protease blockers, concentration series – biochemical, fluorogenic peptide substrate, dose response (AID 1420); assay type: functional
T1 sequence (P43367 whole entry): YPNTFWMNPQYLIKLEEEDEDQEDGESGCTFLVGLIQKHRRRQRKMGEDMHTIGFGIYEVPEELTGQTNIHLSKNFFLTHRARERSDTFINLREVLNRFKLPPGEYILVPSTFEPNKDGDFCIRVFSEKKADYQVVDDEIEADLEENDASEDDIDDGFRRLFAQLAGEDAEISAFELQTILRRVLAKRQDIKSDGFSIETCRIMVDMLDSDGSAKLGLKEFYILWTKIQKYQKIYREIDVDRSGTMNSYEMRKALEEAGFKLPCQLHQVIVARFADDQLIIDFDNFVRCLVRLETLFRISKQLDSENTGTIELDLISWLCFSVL

[2] = Luminescence Cell-Based Dose Retest to Confirm Inhibitors of Cancer Stem Cells. [Related pubchem assays (depositor defined):AID2717, AID2721]; assay type: functional; conditions: Homo sapiens
[3] = biological target: Heat shock protein HSP 90-alpha (Homo sapiens, UniProt P07900); assay type: functional, organism-based
[4] = biological target: T2, Replicative DNA helicase DnaB (Mycobacterium tuberculosis, UniProt P9WMR3); assay: DnaB intein splicing inhibitors, dose response, biochemical, cell-free fluorescence (AID 449749); assay type: functional
T2 sequence (P9WMR3 whole entry): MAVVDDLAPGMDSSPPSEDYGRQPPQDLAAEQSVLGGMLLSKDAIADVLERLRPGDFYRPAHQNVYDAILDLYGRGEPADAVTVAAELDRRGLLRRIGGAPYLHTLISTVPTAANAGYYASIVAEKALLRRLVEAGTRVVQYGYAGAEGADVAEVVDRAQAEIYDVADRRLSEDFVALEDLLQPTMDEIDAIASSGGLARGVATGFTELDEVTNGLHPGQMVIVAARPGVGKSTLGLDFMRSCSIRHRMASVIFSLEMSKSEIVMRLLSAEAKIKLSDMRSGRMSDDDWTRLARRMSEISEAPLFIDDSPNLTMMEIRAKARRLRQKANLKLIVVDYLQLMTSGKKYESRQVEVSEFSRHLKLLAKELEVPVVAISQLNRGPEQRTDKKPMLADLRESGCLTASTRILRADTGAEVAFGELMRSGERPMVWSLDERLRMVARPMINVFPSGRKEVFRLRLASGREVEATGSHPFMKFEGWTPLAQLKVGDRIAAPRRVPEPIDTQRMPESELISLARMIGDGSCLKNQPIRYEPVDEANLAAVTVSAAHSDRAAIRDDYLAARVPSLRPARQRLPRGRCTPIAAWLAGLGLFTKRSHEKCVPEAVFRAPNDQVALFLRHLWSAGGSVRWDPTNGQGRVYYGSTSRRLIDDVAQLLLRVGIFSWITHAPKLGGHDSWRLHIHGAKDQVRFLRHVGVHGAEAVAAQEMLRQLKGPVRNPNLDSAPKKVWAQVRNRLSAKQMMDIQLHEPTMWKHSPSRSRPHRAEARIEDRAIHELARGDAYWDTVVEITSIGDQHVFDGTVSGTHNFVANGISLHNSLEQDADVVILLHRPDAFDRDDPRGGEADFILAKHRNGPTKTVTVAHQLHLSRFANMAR

[5] = biological target: T3, Protein RecA (Mycobacterium tuberculosis, UniProt P9WHJ3); assay: Fluorescence Cell-Free Homogeneous Dose Retest to Identify Inhibitors of RecA-Intein Splicing Activity. [Related pubchem assays (depositor defined):AID2097, AID2223, AID489010, AID492950]; assay type: functional
T3 sequence (P9WHJ3 whole entry): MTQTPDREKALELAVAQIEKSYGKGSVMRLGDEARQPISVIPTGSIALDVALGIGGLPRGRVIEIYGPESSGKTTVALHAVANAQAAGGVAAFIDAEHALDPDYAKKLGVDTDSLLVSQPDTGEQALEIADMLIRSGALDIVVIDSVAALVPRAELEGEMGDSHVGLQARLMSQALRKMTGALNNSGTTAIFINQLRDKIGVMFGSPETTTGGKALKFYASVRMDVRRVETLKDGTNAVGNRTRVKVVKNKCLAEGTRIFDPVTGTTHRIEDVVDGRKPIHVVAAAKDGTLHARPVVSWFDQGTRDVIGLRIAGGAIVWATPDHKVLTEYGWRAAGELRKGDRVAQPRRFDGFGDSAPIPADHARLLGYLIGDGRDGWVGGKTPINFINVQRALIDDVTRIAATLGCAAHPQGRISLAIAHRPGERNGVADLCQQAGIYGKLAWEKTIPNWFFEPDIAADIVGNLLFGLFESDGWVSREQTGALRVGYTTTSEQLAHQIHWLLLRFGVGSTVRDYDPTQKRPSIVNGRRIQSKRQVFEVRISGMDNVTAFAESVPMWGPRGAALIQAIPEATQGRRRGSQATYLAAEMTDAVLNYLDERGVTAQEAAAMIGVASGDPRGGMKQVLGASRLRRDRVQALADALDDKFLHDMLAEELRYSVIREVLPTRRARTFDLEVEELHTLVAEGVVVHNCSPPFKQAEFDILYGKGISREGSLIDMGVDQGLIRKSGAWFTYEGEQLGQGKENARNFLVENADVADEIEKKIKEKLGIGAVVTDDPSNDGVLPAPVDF

[6] = biological target: Cytochrome P450 2D6 (Homo sapiens, UniProt P10635);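 further: CYP2D6 member of a cytochrome P450 panel assay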
[7] = biological target: Cytochrome P450 2C9 (Homo sapiens, UniProt P11712)
[8] = viability of uninfected HEp-2 cells – cell-based, HTS, cytotoxicity control for RSV inhibitor project, dose response (AID 2410); assay type: functional; conditions: human respiratory syncytial virus
[9] = cells
[10] = biological target: T4, Leucine aminopeptidase (Plasmodium falciparum 3D7, UniProt Q8IL11); assay: P. falciparum M17LAP inhibitors, primary screen, biochemical, fluorogenic H-Leu-NHMec substrate, 1536-well (AID 1619); assay type: functional
T4 sequence (Q8IL11 whole entry): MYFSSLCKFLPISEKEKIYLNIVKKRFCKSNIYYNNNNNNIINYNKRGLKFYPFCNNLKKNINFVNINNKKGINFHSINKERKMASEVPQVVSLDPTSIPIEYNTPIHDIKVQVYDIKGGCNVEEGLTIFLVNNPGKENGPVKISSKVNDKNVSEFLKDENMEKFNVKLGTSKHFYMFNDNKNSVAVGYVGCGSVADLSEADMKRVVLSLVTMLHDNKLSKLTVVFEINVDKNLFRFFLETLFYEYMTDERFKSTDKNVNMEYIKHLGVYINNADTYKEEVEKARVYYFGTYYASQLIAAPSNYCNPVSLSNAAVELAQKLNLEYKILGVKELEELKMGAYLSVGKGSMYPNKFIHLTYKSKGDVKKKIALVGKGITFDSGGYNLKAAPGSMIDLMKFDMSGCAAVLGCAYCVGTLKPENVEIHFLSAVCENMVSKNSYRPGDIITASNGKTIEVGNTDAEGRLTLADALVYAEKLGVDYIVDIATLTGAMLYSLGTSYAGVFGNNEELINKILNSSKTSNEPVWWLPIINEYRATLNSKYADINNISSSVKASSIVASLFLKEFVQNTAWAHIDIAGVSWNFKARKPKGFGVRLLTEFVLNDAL

[11] = biological target: T5, Cytochrome P450 1A2 (Homo sapiens, UniProt P05177);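 further: PubChem cytochrome P450 panel assay, CYP1A2 panel member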
T5 sequence (P05177 whole entry): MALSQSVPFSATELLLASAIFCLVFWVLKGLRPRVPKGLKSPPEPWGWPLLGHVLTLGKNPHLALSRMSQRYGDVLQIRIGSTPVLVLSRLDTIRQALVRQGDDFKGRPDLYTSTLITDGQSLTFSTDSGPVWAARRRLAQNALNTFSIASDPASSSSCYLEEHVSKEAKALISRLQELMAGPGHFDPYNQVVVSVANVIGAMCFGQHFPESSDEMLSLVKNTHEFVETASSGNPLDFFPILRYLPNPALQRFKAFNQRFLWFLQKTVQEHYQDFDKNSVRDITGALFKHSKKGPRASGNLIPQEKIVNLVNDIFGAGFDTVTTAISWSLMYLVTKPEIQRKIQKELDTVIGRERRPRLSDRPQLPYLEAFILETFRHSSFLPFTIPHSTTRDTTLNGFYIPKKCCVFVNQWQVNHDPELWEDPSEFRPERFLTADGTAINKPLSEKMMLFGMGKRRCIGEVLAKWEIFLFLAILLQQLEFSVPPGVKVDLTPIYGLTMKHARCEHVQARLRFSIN

[12] = NIH-3T3 fibroblast cytotoxicity, dose response, cytotoxicity control, cell-based, fluorescence, Alamar Blue, secondary assay (AID 2327); assay type: functional;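 further: NIH-3T3 mouse fibroblasts cultured with fluconazole at 8 µg/mL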
[13] = test system: Streptococcus sp. 'group A'; assay: Streptococcus pyogenes SK(-)GAS viability under kanamycin – luminescence, BacTiterGlo, confirmation, counter-screen for streptokinase expression inhibitor project, dose response (AID 1900); assay type: functional, organism-based
[14] = fluconazole-exposed Candida albicans growth modulators – fluorescence, retest, confirmation (AID 2467); assay type: functional, cell-based
[15] = test system: Streptococcus; assay: GAS UMAA2166 growth inhibition – luminescence, BacTiterGlo, counter-screen for streptokinase expression inhibitor project, dose response (AID 1915); assay type: functional, organism-based;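 further: potency for reduction of bacterial viability or growth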
[16] = biological target: Large T antigen (Simian virus 40, UniProt P03070); assay type: functional, Betapolyomavirus macacae;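 further: Confirmatory-stage PubChem screen for compounds that inhibit SV40 T antigen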
[17] = biological target: FAD-linked sulfhydryl oxidase ALR (Homo sapiens, UniProt P55789); assay: ALR-catalysed DTT oxidation blockers – biochemical, H2O2 detection, luminescence, cherry-pick, dose response (AID 493248)
[18] = biological target: T6, Rac GTPase-activating protein 1 (Homo sapiens, UniProt Q9H0H5); assay: blockers of MgcRacGAP-driven Rac1 GTP hydrolysis – biochemical, ADP Hunter fluorescence, primary and confirmatory, confirmation (AID 624330); assay type: functional
T6 sequence (Q9H0H5 whole entry): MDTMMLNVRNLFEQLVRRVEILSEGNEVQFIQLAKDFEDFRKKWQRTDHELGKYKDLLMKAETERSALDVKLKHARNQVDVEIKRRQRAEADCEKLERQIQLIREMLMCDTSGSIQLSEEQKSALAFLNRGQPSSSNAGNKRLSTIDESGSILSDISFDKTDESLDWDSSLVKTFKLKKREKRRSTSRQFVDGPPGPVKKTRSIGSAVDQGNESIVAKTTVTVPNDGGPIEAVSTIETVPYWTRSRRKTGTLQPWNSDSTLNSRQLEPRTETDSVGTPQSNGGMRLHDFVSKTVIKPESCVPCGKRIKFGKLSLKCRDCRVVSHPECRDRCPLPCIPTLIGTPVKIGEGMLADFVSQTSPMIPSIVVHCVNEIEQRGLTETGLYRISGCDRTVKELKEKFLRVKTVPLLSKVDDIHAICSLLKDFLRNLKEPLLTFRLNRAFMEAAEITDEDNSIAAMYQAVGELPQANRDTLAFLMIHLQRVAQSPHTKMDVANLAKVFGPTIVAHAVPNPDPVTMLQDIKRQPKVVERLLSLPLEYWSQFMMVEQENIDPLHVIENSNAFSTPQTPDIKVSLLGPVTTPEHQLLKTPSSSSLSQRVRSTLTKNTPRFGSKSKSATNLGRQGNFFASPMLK

Chain of Cytochrome P450 2C9 (P11712 whole entry): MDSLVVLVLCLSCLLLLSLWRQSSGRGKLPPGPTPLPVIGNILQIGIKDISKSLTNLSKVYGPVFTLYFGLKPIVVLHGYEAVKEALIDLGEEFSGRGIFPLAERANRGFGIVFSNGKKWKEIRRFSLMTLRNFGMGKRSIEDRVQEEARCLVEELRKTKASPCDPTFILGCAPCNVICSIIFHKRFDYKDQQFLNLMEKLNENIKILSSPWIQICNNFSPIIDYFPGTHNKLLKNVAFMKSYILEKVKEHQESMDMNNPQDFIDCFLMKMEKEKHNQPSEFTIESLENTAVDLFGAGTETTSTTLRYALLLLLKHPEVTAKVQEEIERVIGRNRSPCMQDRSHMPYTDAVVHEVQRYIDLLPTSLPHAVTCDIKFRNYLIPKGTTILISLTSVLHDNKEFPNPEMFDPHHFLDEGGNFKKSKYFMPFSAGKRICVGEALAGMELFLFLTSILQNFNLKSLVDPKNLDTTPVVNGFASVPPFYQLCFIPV
Chain of Cytochrome P450 2D6 (P10635 whole entry): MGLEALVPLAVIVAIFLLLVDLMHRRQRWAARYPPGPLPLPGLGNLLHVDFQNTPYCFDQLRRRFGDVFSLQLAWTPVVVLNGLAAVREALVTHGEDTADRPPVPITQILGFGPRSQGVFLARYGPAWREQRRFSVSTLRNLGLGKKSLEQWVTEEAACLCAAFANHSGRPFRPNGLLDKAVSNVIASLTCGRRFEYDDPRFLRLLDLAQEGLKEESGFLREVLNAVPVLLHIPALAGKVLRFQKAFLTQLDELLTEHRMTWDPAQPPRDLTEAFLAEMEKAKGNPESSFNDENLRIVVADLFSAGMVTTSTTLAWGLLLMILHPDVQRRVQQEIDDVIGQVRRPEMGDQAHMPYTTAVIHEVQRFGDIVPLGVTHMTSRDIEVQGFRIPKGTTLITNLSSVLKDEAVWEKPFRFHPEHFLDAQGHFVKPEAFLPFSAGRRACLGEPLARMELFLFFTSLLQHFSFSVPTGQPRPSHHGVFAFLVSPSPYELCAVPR
Chain of FAD-linked sulfhydryl oxidase ALR (P55789 whole entry): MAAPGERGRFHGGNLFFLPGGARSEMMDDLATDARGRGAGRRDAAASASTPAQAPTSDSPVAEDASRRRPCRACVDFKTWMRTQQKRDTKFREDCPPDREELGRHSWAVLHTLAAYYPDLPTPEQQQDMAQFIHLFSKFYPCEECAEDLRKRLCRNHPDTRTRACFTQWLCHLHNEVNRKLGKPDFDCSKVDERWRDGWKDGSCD
Chain of Large T antigen (P03070 whole entry): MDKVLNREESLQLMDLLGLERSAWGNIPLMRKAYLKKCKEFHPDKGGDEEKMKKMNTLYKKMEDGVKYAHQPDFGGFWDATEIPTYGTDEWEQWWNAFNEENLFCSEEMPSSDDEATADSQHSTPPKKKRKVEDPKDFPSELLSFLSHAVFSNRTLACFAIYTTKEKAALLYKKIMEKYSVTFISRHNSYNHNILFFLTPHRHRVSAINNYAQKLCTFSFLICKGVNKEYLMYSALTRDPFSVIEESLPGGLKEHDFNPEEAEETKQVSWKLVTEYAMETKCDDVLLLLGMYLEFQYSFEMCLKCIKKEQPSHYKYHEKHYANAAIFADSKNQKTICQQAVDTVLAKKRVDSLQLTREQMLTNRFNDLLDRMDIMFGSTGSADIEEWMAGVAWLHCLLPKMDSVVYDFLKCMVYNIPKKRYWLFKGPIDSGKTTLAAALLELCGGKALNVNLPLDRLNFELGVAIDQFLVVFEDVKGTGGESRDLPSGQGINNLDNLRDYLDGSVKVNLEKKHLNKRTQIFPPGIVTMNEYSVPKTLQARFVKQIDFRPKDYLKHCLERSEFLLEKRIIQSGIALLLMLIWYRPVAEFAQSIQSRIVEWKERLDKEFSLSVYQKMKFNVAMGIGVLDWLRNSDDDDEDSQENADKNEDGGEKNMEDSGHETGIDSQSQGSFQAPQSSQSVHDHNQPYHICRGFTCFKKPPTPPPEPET

## O=C(Nc1nc(-c2ccc(Cl)cc2)cs1)C1CCCO1 (configuration not stated)
[1]
  IC50: 19.1 µM (not active)

## Cc1cc(NC(=O)CSc2nnc(-c3ccncc3)n2N)ccc1Br
[1]
  IC50: > 50 µM (not active)

## COc1ccc2sc(-c3ccccc3OC)c(-c3ccc(O)cc3)c2c1
[2]
  AC50: 4.27 µM (active)
[3]
  AC50: 5.35 µM (active)

## COc1ccc(NC(=O)c2ccc(=O)oc2)cc1
[1]
  IC50: 11.5 µM (not active)

## O=c1oc2cc(Oc3c([N+](=O)[O-])cc(C(F)(F)F)cc3[N+](=O)[O-])ccc2c2c1CCCC2
[4]
  AC50: > 380 µM (inactive)
[5]
  EC50: 1.55 µM (active)
[6]
  AC50: 11.2 µM (inconclusive)
[7]
  AC50: inconclusive

## CCOc1ccc(N2C(=O)/C(=C\c3ccccc3OC)S(=O)(=O)C2c2cccc([N+](=O)[O-])c2)cc1 (configuration not stated)
[3]
  AC50: 26.2 µM (active)

## COc1cc2c(cc1OC)C(C)N(C(=O)c1cc3ccccc3o1)CC2 (configuration not stated)
[8]
  CC50: 17.7 µM (active)
[9]
  IC50: 39.6 µM (active)

## O=C(CCOc1ccccc1)Nc1ccc(S(=O)(=O)N2CCCC2)cc1
[1]
  IC50: 26.4 µM (not active)

## COCC(=O)n1nc(NCc2ccc(OC)cc2)nc1NCc1ccc(OC)cc1
[3]
  AC50: 8.12 µM (active)

## Cc1cc(O)nc(SCC(=O)Nc2ccc(F)cc2)c1C#N
[10]
  IC50: 4.1 µM (active)

## Cc1c(Br)cc(C(=O)NC2CCCCC2)c(C)c1C
[11]
  AC50: 3.55 µM (inconclusive)
[7]
  AC50: inconclusive

## O=C(COC(=O)CCc1ccccc1)NC12CC3CC(CC(C3)C1)C2
[1]
  IC50: 19.6 µM (not active)

## Cc1cccc(C)c1OCC(=O)NNC(=S)NC(=O)C1CC1
[12]
  EC50: > 160 µM (inactive)
[13]
  EC50: 0.412 µM (active)
[14]
  EC50: 1.66 µM (active)
[15]
  EC50: 7.38 µM (active)
[3]
  AC50: 1.15 µM (active)

## O=C1CCSc2ccc(Cl)cc2N1Cc1cccc(Cl)c1
[8]
  CC50: 35.5 µM (active)
[9]
  IC50: 42.8 µM (active)

## COC(=O)c1ccc(N2C(=O)C3CC(C)=C(C)CC3C2=O)cc1 (configuration not stated)
[1]
  IC50: 10.9 µM (not active)

## COc1ccc2sc(N3C(=O)C4CC=C(C)CC4C3=O)nc2c1 (configuration not stated)
[10]
  IC50: 35 µM (active)

## CCOc1ccc(Nc2nc(Cc3nnc(SCC(=O)NCc4ccco4)n3CC)cs2)cc1
[10]
  IC50: 28.1 µM (active)

## Cc1cc2nc(-c3ccc(NC(=O)C(C)C)cc3)oc2cc1C
[9]
  IC50: 39.1 µM (active)

## CCN(c1ccccc1)S(=O)(=O)c1ccc(OC)c(NC(=O)Cc2ccccc2OC)c1
[8]
  CC50: > 50 µM (active)
[9]
  IC50: 35 µM (active)

## O=C/C(=N\Nc1ccccc1)C(=O)c1ccc(Cl)cc1
[3]
  AC50: 3.15 µM (active)

## COc1cc(/C(C)=N/NC(=O)Cc2c(C)n[nH]c2O)ccc1O
[10]
  IC50: 34.1 µM (active)
[16]
  IC50: 13 µM (active)
[17]
  AC50: 4.03 µM (active)
[18]
  IC50: 69.8 µM (active)

## O=C(O)c1cc(/C=N\O)ccc1OCc1ccccc1
[10]
  IC50: 16.4 µM (active)
